# The source made the active and inactive calls.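 How the source made its calls: active means IC50 at or below 10 µM; inactive means IC50 above 10 µM.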
# Biological target: HCV core protein (core106) dimerization, Hepatitis C virus
# Assay: HCV core dimerization inhibitor potency, late-stage follow-up, biochemical, TR-FRET, dose response, powder samples (AID 2488)
# Details: GST/Flag-core106 dimerization, TR-FRET HTRF
row,SMILES,IC50
1,CC1=C(/C=C/C(C)=C/C=C/C(C)=C/C=C/C=C(C)/C=C/C=C(C)/C=C/C2=C(C)CCCC2(C)C)C(C)(C)CCC1,> 49.8 µM (inactive)
2,CCCCCC#CCC#CCC#CCC#CCCCC(=O)O,> 49.8 µM (inactive)
3,CCN(CC(=O)Nc1c(F)cccc1F)C(=O)/C=C/c1ccc2ccccc2n1,inactive
4,COc1ccc(NC(=O)CN(C)C(=O)c2cc3c(s2)CCC3)cc1,inactive
5,Cc1ccc(Cc2c(C)nc3nc(SCC(=O)NCCCN4CCCCCC4)nn3c2C)cc1,3.67 µM
6,O=C(/C=C/c1ccc(Br)o1)OCc1nc2ccsc2c(=O)[nH]1,> 49.8 µM (inactive)
7,COCCN(C(=O)COC(=O)c1cc2c(s1)CCC2)c1c(N)n(Cc2ccccc2)c(=O)[nH]c1=O,inactive
8,Cc1ccccc1N1C(=O)/C(=C/c2ccco2)C(=O)NC1=S,inactive

# Source: PubChem BioAssay AID2488 (The Scripps Research Institute Molecular Screening Center, 2010)
